pKi: −log10 of the molar value.

The assay is described as follows: Nicotinic acetylcholine receptor binding activity was determined by ability to displace [125I]alpha-BgT binding to rat brain membrane.
`CN1CC[C@@H](Oc2cccnc2)C1` [3-((R)-1-Methyl-pyrrolidin-3-yloxy)-pyridine]: the pKi (commonly the negative decadic logarithm of the Ki, by convention in mol/L) is under 5.00. Turning to `CN1CC[C@H](Oc2cccnc2)C1` [3-((S)-1-Methyl-pyrrolidin-3-yloxy)-pyridine], the pKi was under 5.00. Then `c1ncc(OC[C@@H]2CCN2)cn1` [5-((S)-1-Azetidin-2-ylmethoxy)-pyrimidine], with under 5.00; and `CN1CC[C@H]1COc1cncnc1` [5-((S)-1-Methyl-azetidin-2-ylmethoxy)-pyrimidine], with under 5.00.

The values are drawn from BindingDB's records for doi:10.1016/s0960-894x(99)00462-x (Abbott Laboratories, 1999).
